Measured values published in patent US11168073B2, “3,3-difluoroallylamines or salts thereof and pharmaceutical compositions comprising the same” (YUHAN CORPORATION, priority 2018, dated 2021).
Where a name gives a salt, the structure may show the parent alone.

Columns and labels:
Type in all cases: biochemical
[1] = target: T1, recombinant human MAO-B (monoamine oxidase-B) (Homo sapiens, UniProt P27338); assay: Activity evaluation on recombinant human MAO-B (Amplex Red/HRP-coupled assay, 1 mM benzylamine substrate); details: 1 mM benzylamine, read-out: Inhibitory Activity (IC50, nM) MAO-B
T1 construct: purchased Sigma-Aldrich
T1 sequence (P27338 1-520): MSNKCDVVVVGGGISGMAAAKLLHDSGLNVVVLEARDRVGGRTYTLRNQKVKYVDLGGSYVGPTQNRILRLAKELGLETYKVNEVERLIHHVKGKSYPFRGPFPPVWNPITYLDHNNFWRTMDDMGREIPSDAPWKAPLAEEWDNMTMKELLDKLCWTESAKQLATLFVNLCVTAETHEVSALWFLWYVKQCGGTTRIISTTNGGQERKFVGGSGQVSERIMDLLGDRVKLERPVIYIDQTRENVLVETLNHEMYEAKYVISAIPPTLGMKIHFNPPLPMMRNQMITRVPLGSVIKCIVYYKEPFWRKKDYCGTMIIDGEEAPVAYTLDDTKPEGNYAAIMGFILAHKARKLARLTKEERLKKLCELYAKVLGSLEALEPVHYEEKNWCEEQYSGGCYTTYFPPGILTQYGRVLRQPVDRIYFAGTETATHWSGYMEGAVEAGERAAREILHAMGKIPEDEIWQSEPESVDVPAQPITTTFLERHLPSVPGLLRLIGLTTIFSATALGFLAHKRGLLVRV
Method: (§1) The compounds according to the present technology were evaluated in terms of activity on recombinant human VAP-1 (R&D systems) by measuring the level of hydrogen peroxide in horseradish peroxidase (HRP)-coupled reaction using Amplex Red Hydrogen Peroxide Assay Kit (Molecular Probes, Invitrogen, USA). The experiment was carried out at room temperature using benzylamine as a substrate. In the HRP-coupled reaction, hydrogen peroxide oxidation of 10-acetyl-3,7-dihydroxyphenoxazine (Amplex Red reagent) produces resorufin, which is a highly fluorescent compound. Briefly, the test compound was dissolved in dimethyl sulfoxide (DMSO) at a concentration of 20 mM. The dose-response assessment was made by 1:3 serial dilution in DMSO, thereby creating a 8 point curve. The concentration of the upper part was controlled according to the efficacy of the compounds, followed by the dilution with a reaction buffer solution to obtain a final DMSO concentration of less than 1%. To each well of a 96 black well plate, human VAP-1 purified in 50 mM sodium phosphate buffer solution (pH7.4) was added. The test compounds dissolved in DMSO were incubated with the human VAP-1 enzymes at 37° C. for 30 minutes. After 30-minute incubation, each well was added with a reaction mixture containing 200 uM Amplex Red reagent prepared from 50 mM sodium phosphate buffer solution (pH 7.4), 1 mM benzylamine, and 1 U/mL HRP. Fluorescence intensity was measured at several time points during 1-2 hours using a microplate reader (Flexstation3, Molecular Devices) under the wavelength condition exciting at 544 nm and reading the emission at 590 nm. The inhibitory effect of the compounds was measured as a decrease (%) in the signal rate as compared to the control group without any inhibitor (only diluted DMSO). Data was fixed to a logistic model with four variables and IC50 value was calculated using GraphPad Prism program.
(§2) In addition, the compounds according to the present technology were evaluated in terms of activity on a recombinant human MAO-A (monoamine oxidase-A, Sigma-Aldrich) and a recombinant human MAO-B (monoamine oxidase-B, Sigma-Aldrich) by using as substrates, 0.5 mM tyramine and 1 mM benzylamine, respectively, with a method similar to the activity evaluation method for recombinant human VAP-1. The compounds according to the present technology were also evaluated in terms of activity on a recombinant human DAO (diamine oxidase, R&D systems) by using as a substrate 1 mM putrescine with a method similar to the activity evaluation method for recombinant human VAP-1.

recombinant human VAP-1 = target: T2, recombinant human VAP-1 (Homo sapiens, UniProt Q16853); assay: Activity evaluation on recombinant human VAP-1 (Amplex Red/HRP-coupled hydrogen peroxide assay, benzylamine substrate); details: recombinant human VAP-1; 30 min preincubation at 37° C.; 1 mM benzylamine; read-out: Inhibitory Activity (IC50, nM) human VAP-1
T2 construct: purchased R&D systems
T2 sequence (Q16853 1-763): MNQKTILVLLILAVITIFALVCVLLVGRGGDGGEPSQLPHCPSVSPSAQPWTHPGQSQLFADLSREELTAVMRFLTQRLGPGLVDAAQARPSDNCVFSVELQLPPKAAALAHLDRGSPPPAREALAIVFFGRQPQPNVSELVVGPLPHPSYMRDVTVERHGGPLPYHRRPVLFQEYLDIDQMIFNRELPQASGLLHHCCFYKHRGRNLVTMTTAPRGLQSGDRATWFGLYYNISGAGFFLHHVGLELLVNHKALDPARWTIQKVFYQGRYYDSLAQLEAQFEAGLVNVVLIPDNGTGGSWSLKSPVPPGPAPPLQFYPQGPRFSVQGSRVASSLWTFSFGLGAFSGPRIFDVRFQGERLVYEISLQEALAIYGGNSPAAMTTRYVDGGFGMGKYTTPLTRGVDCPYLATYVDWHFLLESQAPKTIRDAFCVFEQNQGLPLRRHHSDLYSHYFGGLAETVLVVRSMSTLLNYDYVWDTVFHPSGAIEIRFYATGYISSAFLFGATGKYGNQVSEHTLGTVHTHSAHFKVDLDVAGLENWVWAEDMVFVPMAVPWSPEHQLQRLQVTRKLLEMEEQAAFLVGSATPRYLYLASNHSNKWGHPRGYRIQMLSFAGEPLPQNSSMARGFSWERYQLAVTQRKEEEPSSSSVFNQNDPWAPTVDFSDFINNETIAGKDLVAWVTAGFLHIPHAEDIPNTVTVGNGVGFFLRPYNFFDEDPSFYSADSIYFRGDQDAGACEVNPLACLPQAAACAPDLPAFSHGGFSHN
Method: as §1

[2] = target: T3, recombinant human DAO (diamine oxidase) (Homo sapiens, UniProt P19801); assay: Activity evaluation on recombinant human DAO (Amplex Red/HRP-coupled assay, 1 mM putrescine substrate); details: 1 mM putrescine, read-out: Inhibitory Activity (IC50, nM) DAO
T3 construct: purchased R&D systems
T3 sequence (P19801 20-751): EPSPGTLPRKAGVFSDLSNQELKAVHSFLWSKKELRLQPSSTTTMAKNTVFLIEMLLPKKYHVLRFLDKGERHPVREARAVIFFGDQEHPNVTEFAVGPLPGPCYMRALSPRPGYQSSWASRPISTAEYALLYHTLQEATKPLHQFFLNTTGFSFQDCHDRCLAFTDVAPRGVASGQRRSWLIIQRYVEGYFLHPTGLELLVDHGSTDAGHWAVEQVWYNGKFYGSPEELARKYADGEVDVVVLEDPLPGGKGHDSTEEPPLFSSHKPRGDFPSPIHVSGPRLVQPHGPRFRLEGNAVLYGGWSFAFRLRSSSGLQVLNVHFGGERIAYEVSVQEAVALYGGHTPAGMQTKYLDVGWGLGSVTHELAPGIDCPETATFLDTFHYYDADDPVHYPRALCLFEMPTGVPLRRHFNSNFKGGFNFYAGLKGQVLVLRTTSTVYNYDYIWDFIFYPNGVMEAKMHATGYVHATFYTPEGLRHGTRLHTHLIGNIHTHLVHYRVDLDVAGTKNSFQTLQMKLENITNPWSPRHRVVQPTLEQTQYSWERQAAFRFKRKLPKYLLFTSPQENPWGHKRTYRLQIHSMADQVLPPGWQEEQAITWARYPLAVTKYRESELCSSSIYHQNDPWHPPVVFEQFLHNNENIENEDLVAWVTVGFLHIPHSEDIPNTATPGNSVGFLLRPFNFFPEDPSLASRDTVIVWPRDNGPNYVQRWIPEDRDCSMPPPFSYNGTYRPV
Method: as §1, §2

[3] = target: T4, recombinant human MAO-A (monoamine oxidase-A) (Homo sapiens, UniProt P21397); assay: Activity evaluation on recombinant human MAO-A (Amplex Red/HRP-coupled assay, 0.5 mM tyramine substrate); details: 0.5 mM tyramine, read-out: Inhibitory Activity (IC50, nM) MAO-A
T4 construct: purchased Sigma-Aldrich
T4 sequence (P21397 1-527): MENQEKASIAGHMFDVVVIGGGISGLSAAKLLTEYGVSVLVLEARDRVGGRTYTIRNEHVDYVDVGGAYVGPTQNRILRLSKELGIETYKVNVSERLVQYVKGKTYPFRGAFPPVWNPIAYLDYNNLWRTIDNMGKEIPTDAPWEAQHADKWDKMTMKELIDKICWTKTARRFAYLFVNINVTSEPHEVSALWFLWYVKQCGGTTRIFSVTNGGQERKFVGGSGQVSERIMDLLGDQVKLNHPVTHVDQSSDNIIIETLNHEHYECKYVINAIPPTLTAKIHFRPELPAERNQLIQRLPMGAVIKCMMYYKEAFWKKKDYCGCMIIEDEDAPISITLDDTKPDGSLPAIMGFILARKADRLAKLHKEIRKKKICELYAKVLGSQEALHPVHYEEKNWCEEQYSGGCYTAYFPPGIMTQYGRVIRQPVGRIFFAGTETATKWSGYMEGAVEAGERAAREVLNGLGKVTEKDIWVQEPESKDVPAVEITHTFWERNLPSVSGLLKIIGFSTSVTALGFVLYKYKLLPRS
Method: as §1, §2

IC50 [1] [nM]	IC50 (recombinant human VAP-1) [nM]	IC50 [2] [nM]	IC50 [3] [nM]	SMILES
39000	2	> 10000	> 100000	NCC(Cn1ncn(-c2ccc(F)cc2)c1=O)=C(F)F [Example 1, 2-[2-(aminomethyl)-3,3-difluoro-allyl]-4-(4-fluorophenyl)-1,2,4-triazol-3-one Trifluoroacetate]
> 100000	6.2	46000	> 100000	NCC(Cn1ncn(-c2cccc(Br)c2)c1=O)=C(F)F [Example 2, 2-[2-(aminomethyl)-3,3-difluoro-allyl]-4-(3-bromophenyl)-1,2,4-triazol-3-one Trifluoroacetate]
25000	4	19000	> 100000	NCC(Cn1ncn(-c2ccc(F)c(F)c2)c1=O)=C(F)F [Example 3, 2-[2-(aminomethyl)-3,3-difluoro-allyl]-4-(3,4-difluorophenyl)-1,2,4-triazol-3-one Trifluoroacetate]
2300	4.2	58000	> 100000	NCC(Cn1ncn(-c2ccc(Br)c(F)c2)c1=O)=C(F)F [Example 4, 2-[2-(aminomethyl)-3,3-difluoro-allyl]-4-(4-bromo-3-fluoro-phenyl)-1,2,4-triazol-3-one Trifluoroacetate]
4900	2.5	67000	> 100000	NCC(Cn1ncn(-c2ccc(Br)cc2F)c1=O)=C(F)F [Example 5, 2-[2-(aminomethyl)-3,3-difluoro-allyl]-4-(4-bromo-2-fluoro-phenyl)-1,2,4-triazol-3-one Trifluoroacetate]
> 100000	9.4	> 100000	> 100000	Cc1cc(Br)ccc1-n1cnn(CC(CN)=C(F)F)c1=O [Example 6, 2-[2-(aminomethyl)-3,3-difluoro-allyl]-4-(4-bromo-2-methyl-phenyl)-1,2,4-triazol-3-one trifluoroacetate]
6100	9.4	–	> 100000	NCC(Cn1ncn(-c2ccc(Br)nc2)c1=O)=C(F)F [Example 7, 2-[2-(aminomethyl)-3,3-difluoro-allyl]-4-(6-bromo-3-pyridyl)-1,2,4-triazol-3-one Trifluoroacetate]
> 100000	2.2	10500	> 100000	NCC(Cn1ncn(-c2cccc(Br)n2)c1=O)=C(F)F [Example 8, 2-[2-(aminomethyl)-3,3-difluoro-allyl]-4-(6-bromo-2-pyridyl)-1,2,4-triazol-3-one Trifluoroacetate]
> 100000	3.5	7100	> 100000	NCC(Cn1ncn(-c2cc(Br)ccn2)c1=O)=C(F)F [Example 9, 2-[2-(aminomethyl)-3,3-difluoro-allyl]-4-(4-bromo-2-pyridyl)-1,2,4-triazol-3-one Trifluoroacetate]
> 100000	7.7	1200	> 100000	NCC(Cn1ncn(-c2ccnc(Br)c2)c1=O)=C(F)F [Example 10, 2-[2-(aminomethyl)-3,3-difluoro-allyl]-4-(2-bromo-4-pyridyl)-1,2,4-triazol-3-one Trifluoroacetate]
57000	1.1	> 100000	> 100000	Cc1cc(Br)cnc1-n1cnn(CC(CN)=C(F)F)c1=O [Example 11, 2-[2-(aminomethyl)-3,3-difluoro-allyl]-4-(5-bromo-3-methyl-2-pyridyl)-1,2,4-triazol-3-one Trifluoroacetate]
–	0.8	11000	> 100000	CN(C)c1ncc(-c2ccc(Cn3cnn(CC(CN)=C(F)F)c3=O)s2)cc1F [Example 115, 2-[2-(aminomethyl)-3,3-difluoro-allyl]-4-[[5-[6-(dimethylamino)-5-fluoro-3-pyridyl]-2-thienyl]methyl]-1,2,4-triazol-3-one Trifluoroacetate]
–	0.7	> 10000	> 10000	CN(C)c1ccc(C#Cc2ccc(Cn3cnn(CC(CN)=C(F)F)c3=O)s2)cn1 [Example 162, 2-[2-(aminomethyl)-3,3-difluoro-allyl]-4-[[5-[2-[6-(dimethylamino)-3-pyridyl]ethynyl]-2-thienyl]methyl]-1,2,4-triazol-3-one Trifluoroacetate]
